From the NIST ThermoML archive (doi:10.1021/acs.jced.8b00975)

Test: xn = mol fraction of the nth substance listed
Conditions: Liquid, Vibrating tube method

C=C(C)C(=O)OCCN(C)C [2-(dimethylamino)ethyl methylpropenoate] + CCCO
mass density [kg/m3]
Conditions | 100 kPa | 5000 kPa | 10000 kPa | 15000 kPa | 20000 kPa | 25000 kPa | 30000 kPa | 35000 kPa
293.15 K, x1 = 0.03 | 813.1 | 817.13 | 820.85 | 824.33 | 827.64 | 830.83 | 833.97 | 837.12
293.15 K, x1 = 0.0598 | 822.05 | 825.95 | 829.65 | 833.15 | 836.5 | 839.72 | 842.82 | 845.84
293.15 K, x1 = 0.0998 | 832.86 | 836.81 | 840.49 | 843.94 | 847.22 | 850.38 | 853.46 | 856.5
293.15 K, x1 = 0.1502 | 845.14 | 849.07 | 852.65 | 856.05 | 859.3 | 862.47 | 865.58 | 868.68
293.15 K, x1 = 0.2003 | 855.86 | 859.68 | 863.26 | 866.65 | 869.89 | 873.06 | 876.18 | 879.33
293.15 K, x1 = 0.2502 | 865.17 | 868.95 | 872.5 | 875.88 | 879.12 | 882.27 | 885.37 | 888.47
293.15 K, x1 = 0.3013 | 873.68 | 877.48 | 881.04 | 884.41 | 887.65 | 890.79 | 893.88 | 896.98
293.15 K, x1 = 0.3992 | 887.54 | 891.31 | 894.85 | 898.21 | 901.43 | 904.58 | 907.69 | 910.81
293.15 K, x1 = 0.4482 | 893.36 | 897.13 | 900.67 | 904.04 | 907.28 | 910.43 | 913.53 | 916.64
293.15 K, x1 = 0.4998 | 898.97 | 902.77 | 906.35 | 909.73 | 912.96 | 916.08 | 919.13 | 922.15
293.15 K, x1 = 0.5509 | 903.96 | 907.77 | 911.33 | 914.67 | 917.88 | 921 | 924.1 | 927.23
293.15 K, x1 = 0.5986 | 908.27 | 912.04 | 915.56 | 918.89 | 922.08 | 925.2 | 928.3 | 931.47
293.15 K, x1 = 0.699 | 916.1 | 919.83 | 923.35 | 926.69 | 929.91 | 933.05 | 936.14 | 939.24
293.15 K, x1 = 0.7994 | 922.7 | 926.51 | 930.05 | 933.38 | 936.55 | 939.65 | 942.73 | 945.86
293.15 K, x1 = 0.8519 | 925.73 | 929.5 | 933.03 | 936.39 | 939.61 | 942.75 | 945.87 | 949.02
293.15 K, x1 = 0.8992 | 928.25 | 931.98 | 935.56 | 938.89 | 942.14 | 945.3 | 948.43 | 951.54
293.15 K, x1 = 0.9284 | 929.69 | 933.42 | 936.97 | 940.36 | 943.63 | 946.83 | 949.98 | 953.12
293.15 K, x1 = 0.9587 | 931.16 | 934.9 | 938.45 | 941.84 | 945.11 | 948.29 | 951.43 | 954.55
303.15 K, x1 = 0.0307 | 805.44 | 809.69 | 813.63 | 817.3 | – | – | – | –
303.15 K, x1 = 0.0599 | 813.96 | 818.16 | 822.06 | 825.7 | – | – | – | –
303.15 K, x1 = 0.1003 | 824.72 | 828.9 | 832.79 | 836.41 | – | – | – | –
303.15 K, x1 = 0.201 | 847.03 | 851.16 | 854.99 | – | – | – | – | –
303.15 K, x1 = 0.3004 | 864.34 | 868.29 | 872.06 | – | – | – | – | –
303.15 K, x1 = 0.4007 | 878.29 | 882.23 | 885.98 | – | – | – | – | –
303.15 K, x1 = 0.4507 | 884.12 | 888.05 | 891.79 | – | – | – | – | –
303.15 K, x1 = 0.4985 | 889.33 | 893.25 | 896.99 | – | – | – | – | –
303.15 K, x1 = 0.5535 | 894.64 | 898.56 | 902.3 | – | – | – | – | –
303.15 K, x1 = 0.5907 | 897.88 | 901.87 | 905.63 | – | – | – | – | –
303.15 K, x1 = 0.7009 | 906.35 | 910.27 | 914.01 | – | – | – | – | –
303.15 K, x1 = 0.8 | 912.95 | 916.83 | 920.56 | – | – | – | – | –
303.15 K, x1 = 0.9043 | 918.6 | 922.52 | 926.3 | – | – | – | – | –
303.15 K, x1 = 0.9269 | 919.6 | 923.57 | 927.36 | – | – | – | – | –
303.15 K, x1 = 0.9551 | 921.07 | 924.99 | 928.75 | – | – | – | – | –
